System: Spores of the fungus Mycosphearella sp
Experiment: Spore germination test on amended water agar plates
Assay type: cell-based
Details: agar amended with mancozeb alone at 100 ppm; 4×10^5 spores; 12 hours incubation
Procedure: The flowable Calcium formulation (named Calciphite) combination plus Mancozeb as described in the above example was tested for its ability to inhibit spore germination as compared to Mancozeb. Water agar plates were prepared and amended with the Calciphite/mancozeb combination (50 ppm) or mancozeb alone (100 ppm). Spores of the fungus Mycosphearella sp at a spore concentration of 4×10^5 were sprayed onto the surface of the plates and incubated for 12 hours after which the plates were assessed for germination.

mancozeb
% spore germination: 81%

From patent US7708799B2, “Dithiocarbamates and phosphite formulations” (priority 2005, dated 2010)
